Test results taken from patent US10716806B2, “Solution of carbon monoxide for the treatment of disease, including sickle cell disease” (Children's Hospital Los Angeles, priority 2011, dated 2020).

Columns and labels:
[1] = cited from earlier work
[2] = CO concentration achievable in aqueous composition (water) at given temperature and pressure; format: physicochemical
From the text: There are a number of significant limitations to using the delivery of CO dissolved in liquid and used through the GI tract or IV for therapeutic or prophylactic purposes. These limitations have been overcome in the present invention. The primary barrier to date has been delivering sufficient quantities of CO. The solubility of CO in aqueous solutions is low at room temperature and normal atmospheric pressure (ATM). Thus, using approaches previously proposed in the art, which rely on dissolving CO into an aqueous composition at room temperature and at atmospheric pressure, the volume of liquid necessary to deliver a therapeutic dose of CO is logistically prohibitive. However, using the present invention, therapeutically useful levels of CO can be achieved. Table 1 provides a summary of volumes necessary to achieve a therapeutic dose providing an average increase of […] CO-Hb, which provides an average CO-Hb level in the blood of about 7% on average without rising above 15% at any given time. The values are presented for SCD patients. Table 2 provides a similar summary of volumes necessary to treat patients having normal levels of Hb and normal lung function.
First, in the present invention, in particular as it relates to embodiments wherein aqueous compositions are involved, CO is dissolved in an aqueous liquid under higher than ambient pressure. The use of pressure to dissolve the CO increases the achievable concentration of CO in solution. […] Although raising the pressure above 10 ATM might not be commercially practicable, it is technologically feasible at this time. […]

[3] = cited from earlier work; remark: listed apart in the source

In the case of [C-]#[O+] [CO, carbon monoxide], the “half-life of the alpha-phase of CO in the human bloodstream” value [1] is given as 4 to 6 h, the “CO Concentration Achievable in Aqueous Composition” value (“CO Concentration Achievable” below) ([2]; 2° C., 1 ATM) is given as 40 mg/L water and the “CO Concentration in Aqueous Solution” value ([2]; 2° C., 1 ATM) is given as 40 mg/L water. The “CO Concentration Achievable” value ([2]; 2° C., 2 ATM) was 80 mg/L water, the “CO Concentration in Aqueous Solution” value ([2]; 2° C., 2 ATM) was 80 mg/L water and the “CO Concentration Achievable” value ([2]; 2° C., 3 ATM) was 120 mg/L water. The “CO Concentration in Aqueous Solution” value ([2]; 2° C., 3 ATM) was 120 mg/L water, the “CO Concentration Achievable” value ([2]; 2° C., 5 ATM) was 200 mg/L water and the “CO Concentration in Aqueous Solution” value ([2]; 2° C., 5 ATM) was 200 mg/L water. For the same compound, the “CO Concentration Achievable” value ([2]; 2° C., 10 ATM) was 400 mg/L water, the “CO Concentration in Aqueous Solution” value ([2]; 2° C., 10 ATM) was 400 mg/L water and the “CO Concentration Achievable” value ([2]; 21° C., 1 ATM) was 25 mg/L water. The “CO-Hb level at which toxicity and side effects are routinely seen” value ([3]; generally recognized) was “over 20%”, the “CO-Hb level showing effectiveness at reducing SCC without significant deleterious side effects or toxicity” value ([3]; generally recognized) was “up to 15 % CO-Hb” and the “Hb saturation likely resulting in CO-induced death unless treatment is provided” value ([3]; reported (Stewart 1975)) was “over 67%”. The “Hb saturation resulting in loss of consciousness, among other serious morbidities” value ([3]; reported, can result in death if maintained long-term) was “over 30%”.
